From patent publication US11873299B1, “7-(4-((5-(4-chlorobenzylideneamino)-2-thioxo-1,3,4-thiadiazol-3(2H)-yl)methyl)iperazin-1-yl)-1-cyclopropyl-6-fluoro-4-oxo-1,4-dihydroquinoline-3-carboxylic acid as an anti-inflammatory compound” (KING FAISAL UNIVERSITY, priority 2023, dated 2024)

Legend:
[1] = molecular target: Bovine Serum Albumin (BSA) (Bos taurus, UniProt P02769); assay: Bovine Serum Albumin Assay (BSA), inhibition of protein denaturation; format: biochemical; details: dilutions of 20, 40, 60, 80, and 100 μg/mL; 0.4% w/v BSA, pH 6.4; 72° C. for 10 minutes; turbidity at 660 nm
Sequence of Bovine Serum Albumin (BSA) (P02769 25-607): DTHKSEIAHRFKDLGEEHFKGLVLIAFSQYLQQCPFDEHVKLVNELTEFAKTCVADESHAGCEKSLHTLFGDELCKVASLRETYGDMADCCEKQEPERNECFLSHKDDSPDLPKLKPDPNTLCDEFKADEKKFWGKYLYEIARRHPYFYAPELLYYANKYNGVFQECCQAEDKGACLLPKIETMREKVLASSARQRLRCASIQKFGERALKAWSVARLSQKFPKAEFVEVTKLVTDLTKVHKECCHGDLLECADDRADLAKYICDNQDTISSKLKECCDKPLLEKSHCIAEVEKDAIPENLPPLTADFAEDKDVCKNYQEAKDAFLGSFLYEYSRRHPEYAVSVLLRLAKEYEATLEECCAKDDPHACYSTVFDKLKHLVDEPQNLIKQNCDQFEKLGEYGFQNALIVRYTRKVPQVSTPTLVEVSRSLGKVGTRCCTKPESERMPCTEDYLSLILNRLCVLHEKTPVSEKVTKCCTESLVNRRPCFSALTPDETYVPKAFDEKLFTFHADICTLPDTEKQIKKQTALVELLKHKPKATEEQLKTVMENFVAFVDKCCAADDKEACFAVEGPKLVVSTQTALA
Procedure: Bovine Serum Albumin Assay (BSA)
In vitro-inflammatory activities of the tested samples were determined using a modified method of the BSA assay reported by Williams et al. BSA solution (0.4%, w/v) was prepared in Tris Buffered Saline. The pH was adjusted to 6.4 with glacial acetic acid. Different dilutions of 20, 40, 60, 80, and 100 μg/mL of 7-(4-((5-(4-chlorobenzylideneamino)-2-thioxo-1,3,4-thiadiazol-3(2H)-yl)methyl)piperazin-1-yl)-1-cyclopropyl-6-fluoro-4-oxo-1,4-dihydroquinoline-3-carboxylic acid (IV) the stock solutions were added to test tubes containing 1 mL of 0.4%, w/v BSA buffer solution. Both negative (solvent) and positive (aspirin) controls were assayed in a similar manner. The solutions were then heated in a water bath at 72° C. for 10 minutes, and cooled for 20 minutes under laboratory conditions. The turbidity of the solutions (level of protein precipitation) was measured at 660 nm in Spectrophotometer (V-770 UV-Visible/NIR Spectrophotometer). The percentage inhibition of precipitation (protein denaturation) was determined relative to the negative control using the following equation:
[formula] % Anti-Denaturation Activity=% Inhibition of Protein Denaturation=% Anti-inflammatory Activity

O=C(O)c1cn(C2CC2)c2cc(N3CCN(Cn4nc(/N=C/c5ccc(Cl)cc5)sc4=S)CC3)c(F)cc2c1=O [IV, 7-(4-((5-(4-chlorobenzylideneamino)-2-thioxo-1,3,4-thiadiazol-3(2H)-yl)methyl)piperazin-1-yl)-1-cyclopropyl-6-fluoro-4-oxo-1,4-dihydroquinoline-3-carboxylic acid]
in vitro anti-inflammatory activity (inhibition of protein denaturation) [1]: considerable anti-inflammatory effect
melting point: 221 to 223 °C
